Like-named read-outs stand apart in the source and are kept apart here.
Experiments:
[1] = test system: neonatal skin fibroblasts (CCD-27SK, ATCC CRL-1475); details: for Percentage of viability: 5 mg/mL in serum free medium
Experimental: II-1. Effect of Glycopeptide 17 on the Preservation/Protection of Neonatal Skin Fibroblasts Under Starvation Conditions. Evaluation by Trypan Blue Exclusion Method.
• The neonatal skin fibroblasts (Cell line: CCD-27SK, ATCC number CRL-1475) were grown with DMEM medium supplemented with Fetal Bovine Serum 10% final, antibiotics (Penicillin/Streptomycin) 1% final and Amphotericin B 0.1% final. • Fibroblasts were grown in 75 cm^2 culture flask to 80% confluence, in 37° C. and 10% CO2 incubator. The medium was changed every two days by 37° C. preheated fresh medium. Starvation Medium • This medium was composed of 45% subculturing medium without Fetal Bovine Serum mixed with 55% of Phosphate Buffer Saline 1× containing EDTA (final concentration of 0.45 mM). This was referred to as serum-free medium. Product Preparation • Compound 17 (MM=603.4 g/mol) was diluted in starvation medium to 5 mg/ml final and pH was adjusted at 7.4 by addition of NaOH 1N. General Experimental Procedure Assays on 96 Well Plates • Fibroblast cells were concentrated to 2.10^5 cells/ml and 100 μl of cell suspension was added in wells of a 96-well plate and incubated in 37° C. and 10% CO2 incubator for 4 hours. • After cell adhesion the medium was changed and plates were incubated (37° C.-10% CO2) to perform the assay as follow: • One plate for each sampling times: D0, D3, D4, D5, D6, D7, D10, D12 days • Three wells for each condition (triplicate count) added with 120 μl of culture medium (surviving control), starvation medium (serum-free control) or compound 17 solution at 5 mg/ml. […] So, only the dead cells are blue at microscopic observation. • For sampling, 110 μl of Trypan Blue (SIGMA T8154) was added to 110 μl of trypsinated cell suspension of matching well for counting. • […] of the trypan blue/cell mixture are dropped to a hemacytometer. Cells are counting by using a Neubauer-counting chamber. The unstained (viable) and stained (nonviable) cells are counted separately on 9 areas of 1 mm^2 forming a large square of 9 mm^2 and added to obtain the total number of cells per sample. An average of three counts was used to calculate the viability percentage as: [Number of viable cells/total number of cells]*100 • The cell viability percentages from cultures under starvation conditions were compared with control culture for several days after their addition (D0, D3, D4, D5, D6, D7, D10, D12).

[2] = test system: human neonatal skin fibroblasts; assay: UV stress (11 J/cm^2), neutral red uptake viability; assay type: cell-based
Experimental: The neutral red uptake assay was used for the determination of cell viability. This assay is based on the ability of viable cells to incorporate and bind the supravital dye neutral red in its lysosomes. So, only the viable cells are dyed. At different times after the stress assay (T0), the plates were incubated with neutral red solution for 3.5 hours. The cells are subsequently washed, the dye is extracted in each well and the absorbance is read using a spectrophotometer.
For sampling, 1 mL of DMEM (without phenol red indicator) with neutral red (OD=0.110) was added to the cells for 3.5 hours (37° C., 10% CO2). After incubation, the medium was removed, two washes of PBS were realized and 1 mL of extraction solution (absolute ethanol 49%, ultrapure water 49%, glacial acetic acid 2%) was added. Plates were placed 15 minutes on rotary shaker in the dark before reading OD at 540 nm.
The percentage of viability for each assay was calculated as follow: % viability assay=(OD540 nm of tested solution−blank)*100/(OD540 nm of positive control−blank).

Compound: C[C@H](NC(=O)[C@H](C)NC(=O)[C@@H](N)CCCCNCC(F)(F)C1(O)O[C@H](CO)[C@H](O)[C@H](O)[C@H]1O)C(=O)O.Cl.Cl (stereo partly shown) [Compound 17]
- Percentage of viability ([1]; D 0): 96.69 ± 1.85%
- Percentage of viability ([1]; D 0, listed as compound 17): 97%
- Percentage of viability ([1]; D 3): 91.03 ± 1.88%
- Percentage of viability ([1]; D 4): 88.98 ± 2.48%
- Percentage of viability ([1]; D 5): 86.65 ± 4.26%
- Percentage of viability ([1]; D 6): 85.53 ± 1.57%
- Percentage of viability ([1]; D 7): 83.20 ± 3.72%
- Percentage of viability ([1]; D 10): 80.62 ± 3.72%
- Percentage of viability ([1]; D 12): 77.03 ± 2.02%
- Percentage of viability ([1]; D 12, listed as compound 17): 77%
- preservative/protective effect on skin fibroblasts (in words) ([1]; starvation medium, 5 mg/ml, 12 days): significant preservative/protective effect
- preservative/protective effect against UV stress (in words) [2]: preservative/protective effect against UV stress
- Percentage of viability following UV stress (11 J/cm^2) ([2]; 1 h after irradiation, 5 mg/mL): 55%
- Percentage of viability following UV stress (11 J/cm^2) ([2]; 1 h after irradiation, 10 mg/mL): 53%
- Percentage of viability following UV stress (11 J/cm^2) ([2]; 1 h after irradiation, 15 mg/mL): 50%
- Percentage of viability following UV stress (11 J/cm^2) ([2]; 3 h after irradiation, 5 mg/mL): 63%
- Percentage of viability following UV stress (11 J/cm^2) ([2]; 3 h after irradiation, 10 mg/mL): 46%
- Percentage of viability following UV stress (11 J/cm^2) ([2]; 3 h after irradiation, 15 mg/mL): 50%
- Percentage of viability following UV stress (11 J/cm^2) ([2]; 24 h after irradiation, 5 mg/mL): 82%
- Percentage of viability following UV stress (11 J/cm^2) ([2]; 24 h after irradiation, 10 mg/mL): 94%
- Percentage of viability following UV stress (11 J/cm^2) ([2]; 24 h after irradiation, 15 mg/mL): 84%
- growth or regenerative effect on stressed cells (in words) ([2]; viability increased in time after UV): growth or regenerative effect

— patent US10100088B2, “Glycopeptide derivatives for the preservation and protection of biological materials and microorganisms” (TFCHEM, priority 2014, dated 2018)
